Test results from PubChem BioAssay (NCI).
Values joined by “and” are separate entries in the source; they are usually repeats but may differ in a detail not shown here. Equal entries are not always repeated.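 Compound exposure: 48 hours, 5 concentrations, 96-well plates. GI50: concentration for 50% inhibition of growth. TGI marks complete inhibition of growth.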

Tests used:
Test in all cases: NCI-60 cell line screen, 48 h
[1] = tested on: NCI-H226 lung
[2] = tested on: T-47D breast
[3] = tested on: OVCAR-8 ovarian
[4] = tested on: RPMI-8226 leukemia
[5] = tested on: MDA-MB-435
[6] = tested on: DU-145 prostate
[7] = tested on: HCT-15 colon
[8] = tested on: TK-10 renal
[9] = tested on: PC-3 prostate
[10] = tested on: NCI/ADR-RES ovarian

Row | SMILES | GI50 [1] | TGI [1] | GI50 [2] | TGI [2] | GI50 [3] | TGI [3] | GI50 [4] | TGI [4] | GI50 [5] | TGI [5] | GI50 [6] | TGI [6] | GI50 [7] | TGI [7] | GI50 [8] | TGI [8] | GI50 [9] | TGI [9] | GI50 [10] | TGI [10]
1 | O=S(=O)(Nc1cc(Sc2cccc3cccnc23)c(O)c2ccccc12)c1ccc(F)cc1 | 3.24 µM | 19 µM | 1.75 µM | 4.67 µM | 0.645 µM | 10.3 µM | 2.09 µM | 7.36 µM | 2.27 µM | 8.66 µM | 1.27 µM | 3.81 µM | 0.461 µM | 3.16 µM | 2.81 µM | 11.5 µM | 0.74 µM | 12.1 µM | 0.731 µM | 5.62 µM
2 | CN1C(=O)N(C)C2C1NN=c1s/c(=C\c3ccc(C(F)(F)F)cc3)c(=O)n12 (stereo not drawn) | 27 µM | > 100 µM | 1.72 µM | > 100 µM | 2.71 µM | 55.7 µM | 1.65 µM | > 100 µM | 0.312 µM | 1.34 µM | 2.96 µM | > 100 µM | 0.488 µM | > 100 µM | 4.06 µM | 75.9 µM | 0.677 µM | > 100 µM | 0.696 µM | 37.3 µM
3 | O=C(O)CN1CCN(CC(=O)O)CC(=O)[O][Hg][O]C(=O)C1 | > 100 µM | > 100 µM | 17 µM | 43.2 µM | 22.4 µM | 49.4 µM | 18.2 µM | 50.5 µM | 16.2 µM | 30.5 µM | 27.8 µM | > 61.9 µM | 21.1 µM | 46.5 µM | 16 µM | 29.5 µM | 16.5 µM | 30.5 µM | 30.5 µM | > 81.3 µM
4 | O=C(/C=C\c1cccc([N+](=O)[O-])c1)/C=C/c1cccc([N+](=O)[O-])c1 | 15.4 µM | > 100 µM | > 100 µM | > 100 µM | 5.25 µM | > 100 µM | 0.43 µM | 1.6 µM | 2.79 µM | 12.4 µM | 3.49 µM | 56 µM | 5.1 µM | > 100 µM | 2.97 µM | 8.7 µM | 3.17 µM | > 100 µM | 20.2 µM | > 100 µM
5 | OCc1ccc(N2CCCC2c2ccccc2)cc1Cl (stereo not drawn) | 0.126 µM | 0.325 µM | 0.358 µM | 4.71 µM | 8.18 µM | 30.3 µM | 4.36 µM | 23.6 µM | 1.74 µM | 4.18 µM | 12.3 µM | 30.8 µM | 4.24 µM | 20 µM | 0.195 µM | 1.27 µM | 8.41 µM | 29 µM | 3.54 µM | 17.7 µM
6 | CN=c1ccc2nc3ccc(N)cc3sc-2c1 | 15.2 µM | 41.4 µM | 1.69 µM | 13.2 µM | 1.45 µM | 10.3 µM | 0.32 µM | 18 µM | 1.42 µM | 3.24 µM | 10.7 µM | 23.5 µM | 1.62 µM | 68 µM | 6.96 µM | 32.6 µM | 0.276 µM | 8.85 µM | 1.6 µM | 8.44 µM
7 | COc1cc2c(cc1C1COc3cc4occc4cc3C1=O)OCO2 (stereo not drawn) |  | > 100 µM |  | > 100 µM |  | > 100 µM |  | 30.1 µM |  | > 100 µM |  | > 100 µM |  | > 100 µM |  | > 100 µM |  | > 100 µM |  | > 100 µM
8 | C=CC(=O)Nc1cccc(Oc2nc(Nc3ccc(N4CCN(C)CC4)cc3)nc3ccsc23)c1 | 8.23 µM and 10.4 µM | > 10 µM and 36.9 µM | 9.72 µM and 5.29 µM | > 10 µM and 27 µM | 3.59 µM and 3.63 µM | > 10 µM and 11.7 µM | 2.01 µM and 1.96 µM | 4.91 µM and 4.62 µM | 1.71 µM and 1.93 µM | 3.69 µM and 4.12 µM | 2.41 µM and 2.04 µM | > 10 µM and 6.24 µM | 2.32 µM and 2.54 µM | 9.5 µM and 10.6 µM | 0.398 µM and 0.6 µM | 2.56 µM and 4.04 µM | 2.36 µM and 2.87 µM | 8.25 µM and 7.33 µM | 2.73 µM and 3.3 µM | > 10 µM and 20.1 µM
9 | O=C1/C(=C/c2ccccc2[N+](=O)[O-])Cc2ccccc21 | 2.1 µM | 9.03 µM | 2.22 µM | > 100 µM | 2.12 µM | 5.4 µM | 2.44 µM | 7.84 µM | 3.06 µM | 11.8 µM | 1.86 µM | 3.51 µM | 1.66 µM | 4.71 µM | 3.14 µM | 7.1 µM | 1.83 µM | 5.33 µM | 3.35 µM | 40.6 µM
10 | NC(=O)c1csc(C2OC(CO)C(O)C2O)n1 (stereo not drawn) | 99.2 µM | > 9450 µM |  | > 5620 µM | 31.1 µM | 1570 µM | > 20.1 µM | 8150 µM | 43.7 µM | > 4870 µM |  | > 10000 µM | 4.97 µM | 1440 µM | > 74.5 µM | > 10000 µM | 29.5 µM | 2560 µM | 47.4 µM | 3010 µM
11 | O=S(=O)(c1ccc(Cl)cc1)C(Cl)(Cl)Cl | 4.86 µM | 21.9 µM | 1.39 µM | > 33.1 µM | 3.5 µM | 35.5 µM | 3.35 µM | > 52.9 µM | 0.908 µM | 4.7 µM | 2.09 µM | 10 µM | 1.19 µM | > 100 µM | 9.56 µM | > 75.1 µM | 4.73 µM | > 62.5 µM | 1.57 µM | > 24.5 µM
12 | C[C@@H]1CN(Cc2ccc(F)cc2)[C@@H](C)CN1C(=O)c1cc2c(C(=O)C(=O)N(C)C)cn(C)c2cc1Cl | 12.2 µM | 31.1 µM | 5.97 µM | 65.6 µM | 17.6 µM | 48.8 µM | 16.7 µM | 51.9 µM | 15 µM | 35.1 µM | 18.8 µM | 53.1 µM | 18.3 µM | 47.3 µM | 30.3 µM | > 89.7 µM | 18.9 µM | > 77.7 µM | 14.9 µM | 52.7 µM
13 | N#Cc1c(N2CCOCC2)nc(=S)[nH]c1-c1ccco1 | 3.94 µM | 63.5 µM | 1.3 µM | 5.91 µM | 18.3 µM | > 100 µM | 1.58 µM | 16.4 µM | 15.9 µM | > 100 µM | 10.2 µM | > 100 µM | 6.2 µM | > 100 µM | 5.35 µM | 39.7 µM | 0.19 µM | 3.17 µM | 15.6 µM | > 100 µM
